Measurements taken from patent US20230062119A1, “USE OF BIOMARKERS IN IDENTIFYING PATIENTS THAT WILL BE RESPONSIVE TO TREATMENT WITH A PRMT5 INHIBITOR” (Merck Sharp & Dohme LLC, priority 2019, published 2023).

target: T1, Full-length (FL)-PRMT5-MEP50 enzyme complex (Homo sapiens, UniProt O14744); assay: PRMT5-MEP50 Enzyme Methylation Assay; format: biochemical; settings: one EC50: 4 parameters single site sigmoidal model; EC50 1: first value of 7 parameters biphasic model; 1.0 nM PRMT5-MEP50, 75 nM biotinylated peptide, 15 μM SAM; read-out: Enzyme Methylation Assay (EC50 or EC50 1)
T1 construct: Full-length (FL)-PRMT5-MEP50 enzyme complex (recombinant proteins from baculovirus-transfected Sf21 cells: FL-PRMT5; MW=73837 kDa and FL-MEP50; MW=38614); made in house; host or cells: baculovirus-transfected Sf21 insect cells
Experimental: PRMT5-MEP50 biochemical assay is a direct measurement of the methylation activity of the enzyme complex on a short peptide substrate derived from the N-terminus of H4 histone. Methylation experiment is performed with recombinant PRMT5-MEP50 protein complex. The assessment of inhibitory effect of small molecules is measured by the effectiveness of the compounds to inhibit this reaction (EC50).
In this assay, the potency (EC50) of each compound was determined from a twenty-point (1:2 serial dilution; top compound concentration of 100000 nM) titration curve using the following outlined procedure. To each well of a white ProxiPlus 384 well-plate, 100 nL of compound (1% DMSO in final assay volume of 10 μL) was dispensed, followed by the addition of 8 μL of 1× assay buffer (50 mM Bicine pH 8.0, 1 mM DTT, 0.004% Tween20, 0.01% BSA) containing 1.25 nM of Full-length (FL)-PRMT5-MEP50 enzyme complex (recombinant proteins from baculovirus-transfected Sf21 cells: FL-PRMT5; MW=[…] and FL-MEP50; MW=38614) and 1 μL of 150 μM S-(5′-Adenosyl)-L-Methionine Chloride (SAM). Plates were sealed and placed in a 37° C. humidified chamber for a 60 minutes pre-incubation with compound. Subsequently, each reaction was initiated by the addition of 1 μL 1× assay buffer containing 750 nM biotinylated H4R3(Mel) peptide. The final reaction in each well of 10 μL consists of 1.0 nM PRMT5-MEP50, 75 nM biotinylated-peptide, and 15 μM SAM. Methylation reactions proceeded for 150 minutes in a sealed plate at 37° C. Reactions were immediately quenched by the addition of 1 μL of 5% formic acid. Plates were then frozen and shipped to SAMDI™ Tech Inc. to determine the percent conversion from H4R3(Mel) to H4R3(Me2). Dose-response curves were generated by plotting percent effect (% product conversion; Y-axis) vs. Log 10 compound concentrations (X-axis). EC50 values were determined by non-linear regression according to models for either sigmoidal (4 parameters) or biphasic (7 parameters) dose-response curves.

T1 sequence (O14744 whole entry): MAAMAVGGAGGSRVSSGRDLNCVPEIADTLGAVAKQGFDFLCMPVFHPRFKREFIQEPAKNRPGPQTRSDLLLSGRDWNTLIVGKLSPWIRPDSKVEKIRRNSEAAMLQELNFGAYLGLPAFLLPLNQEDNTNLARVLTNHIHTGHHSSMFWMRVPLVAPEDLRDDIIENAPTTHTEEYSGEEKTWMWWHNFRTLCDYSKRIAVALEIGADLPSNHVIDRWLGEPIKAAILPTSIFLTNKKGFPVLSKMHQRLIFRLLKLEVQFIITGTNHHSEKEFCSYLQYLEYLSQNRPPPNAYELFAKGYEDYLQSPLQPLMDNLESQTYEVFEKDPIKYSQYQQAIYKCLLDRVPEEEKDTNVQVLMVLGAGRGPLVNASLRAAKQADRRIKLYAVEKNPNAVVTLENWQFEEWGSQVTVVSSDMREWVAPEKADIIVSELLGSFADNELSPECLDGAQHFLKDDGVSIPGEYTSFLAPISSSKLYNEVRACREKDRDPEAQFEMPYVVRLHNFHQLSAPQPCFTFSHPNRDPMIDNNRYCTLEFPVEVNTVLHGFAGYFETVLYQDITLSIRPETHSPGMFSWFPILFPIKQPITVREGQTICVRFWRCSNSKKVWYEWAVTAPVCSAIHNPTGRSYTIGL
T1 sequence (Q9BQA1 whole entry partner): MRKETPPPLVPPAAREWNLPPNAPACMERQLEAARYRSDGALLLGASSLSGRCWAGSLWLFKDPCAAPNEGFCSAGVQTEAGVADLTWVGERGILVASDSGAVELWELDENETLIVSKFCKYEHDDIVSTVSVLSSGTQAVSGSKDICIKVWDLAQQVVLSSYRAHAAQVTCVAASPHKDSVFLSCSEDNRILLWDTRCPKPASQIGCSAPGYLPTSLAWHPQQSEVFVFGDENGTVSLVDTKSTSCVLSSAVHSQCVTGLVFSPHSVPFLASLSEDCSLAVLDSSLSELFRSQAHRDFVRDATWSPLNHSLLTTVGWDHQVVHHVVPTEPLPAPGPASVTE

| EC50 [nM] | Structure (SMILES) |
| --- | --- |
| 2.4 | C[C@]1(CCc2ccc3cc(Br)c(N)nc3c2)O[C@@H](n2ccc3c(N)ncnc32)[C@H](O)[C@]1(C)O [Example 4, (2R,3S,4R,5R)-2-(2-(2-amino-3-bromoquinolin-7-yl)ethyl)-5-(4-amino-7H-pyrrolo[2,3-d]pyrimidin-7-yl)-2,3-dimethyltetrahydrofuran-3,4-diol] |
| 0.3 | Nc1nc2cc(C[C@@H]3CC[C@@]4(O)[C@@H]3O[C@@H](n3ccc5c(N)ncnc53)[C@@H]4O)cc(F)c2cc1F [Example 29, (2R,3R,3aS,6S,6aR)-6-[(2-amino-3,5-difluoroquinolin-7-yl)methyl]-2-(4-amino-7H-pyrrolo[2,3-d]pyrimidin-7-yl)hexahydro-3aH-cyclopenta[b]furan-3,3a-diol] |
| 0.5 | Nc1nc2cc(C[C@@H]3CC[C@@]4(O)[C@@H]3O[C@@H](n3ccc5c(N)ncnc53)[C@@H]4O)ccc2cc1C(F)F [Example 137, (2R,3R,3aS,6S,6aR)-6-((2-amino-3-(difluoromethyl)quinolin-7-yl)methyl)-2-(4-amino-7H-pyrrolo[2,3-d]pyrimidin-7-yl)hexahydro-2H-cyclopenta[b]furan-3,3a-diol] |
| 0.3 | Cc1cn([C@@H]2C[C@@H]3[C@H](Cc4ccc5cc(Cl)c(N)nc5c4)CC[C@]3(O)[C@H]2O)c2ncnc(N)c12 [Example 39, (1S,2R,3aR,4S,6aR)-4-((2-amino-3-chloroquinolin-7-yl)methyl)-2-(4-amino-5-methyl-7H-pyrrolo[2,3-d]pyrimidin-7-yl)hexahydropentalene-1,6a(1H)-diol] |
| 0.3 | Nc1nc2cc(C[C@@H]3CC[C@@]4(O)[C@@H]3O[C@@H](n3ccc5c(N)ncnc53)[C@@H]4O)ccc2cc1Br [Example 9, (2R,3R,3aS,6S,6aR)-6-((2-amino-3-bromoquinolin-7-yl)methyl)-2-(4-amino-7H-pyrrolo[2,3-d]pyrimidin-7-yl)hexahydro-2H-cyclopenta[b]furan-3,3a-diol] |
| 0.7 | Nc1nc2cc(O[C@H]3CC[C@@]4(O)[C@@H]3O[C@@H](n3ccc5c(N)ncnc53)[C@@H]4O)ccc2cc1C(F)F [Example 128, (2R,3R,3aS,6S,6aR)-6-((2-amino-3-(difluoromethyl)quinolin-7-yl)oxy)-2-(4-amino-7H-pyrrolo[2,3-d]pyrimidin-7-yl)hexahydro-3aH-cyclopenta[b]furan-3,3a-diol] |
| 0.4 | Cc1ncnc2c1ccn2[C@@H]1C[C@@H]2[C@H](Cc3ccc4cc(F)c(N)nc4c3)CC[C@]2(O)[C@H]1O [Example 16, (1S,2R,3aR,4S,6aR)-4-((2-amino-3-fluoroquinolin-7-yl)methyl)-2-(4-methyl-7H-pyrrolo[2,3-d]pyrimidin-7-yl)hexahydropentalene-1,6a(1H)-diol] |
| 0.4 | Cc1cn([C@@H]2O[C@@H]3[C@H](Cc4ccc5cc(Br)c(N)nc5c4)OC[C@]3(O)[C@H]2O)c2ncnc(N)c12 [Example 135, (2R,3R,3aS,6S,6aR)-6-((2-amino-3-bromoquinolin-7-yl)methyl)-2-(4-amino-5-methyl-7H-pyrrolo[2,3-d]pyrimidin-7-yl)tetrahydrofuro[3,4-b]furan-3,3a(4H)-diol] |
| 0.4 | Nc1nc2cc(C[C@@H]3CC[C@@]4(O)[C@@H]3O[C@@H](n3cc(F)c5c(N)ncnc53)[C@@H]4O)cc(F)c2cc1F [Example 24, (2R,3R,3aS,6S,6aR)-6-((2-amino-3,5-difluoroquinolin-7-yl)methyl)-2-(4-amino-5-fluoro-7H-pyrrolo[2,3-d]pyrimidin-7-yl)hexahydro-3aH-cyclopenta[b]furan-3,3a-diol] |
| 0.8 | Cc1ncnc2c1ccn2[C@@H]1O[C@@H]2[C@H](Cc3ccc4cc(Br)c(N)nc4c3)OC[C@]2(O)[C@H]1O [Example 133, (2R,3R,3aS,6S,6aR)-6-((2-amino-3-bromoquinolin-7-yl)methyl)-2-(4-methyl-7H-pyrrolo[2,3-d]pyrimidin-7-yl)tetrahydrofuro[3,4-b]furan-3,3a(4H)-diol] |
| 0.6 | Nc1nc2cc(C[C@@H]3CC[C@@]4(O)[C@@H]3O[C@@H](n3cc(F)c5c(N)ncnc53)[C@@H]4O)ccc2cc1F [Example 59, (2R,3R,3aS,6S,6aR)-6-((2-amino-3-fluoroquinolin-7-yl)methyl)-2-(4-amino-5-fluoro-7H-pyrrolo[2,3-d]pyrimidin-7-yl)hexahydro-3aH-cyclopenta[b]furan-3,3a-diol] |
| 0.9 | Nc1nc2cc(O[C@H]3CC[C@@]4(O)[C@@H]3O[C@@H](n3ccc5c(N)ncnc53)[C@@H]4O)ccc2cc1Cl [Example 72, (2R,3R,3aS,6S,6aR)-6-((2-amino-3-chloroquinolin-7-yl)oxy)-2-(4-amino-7H-pyrrolo[2,3-d]pyrimidin-7-yl)hexahydro-3aH-cyclopenta[b]furan-3,3a-diol] |
| 0.5 | Nc1nc2cc(O[C@H]3CC[C@@]4(O)[C@@H]3O[C@@H](n3cc(-c5ccccc5)c5c(N)ncnc53)[C@@H]4O)ccc2cc1Br [Example 49, (2R,3R,3aS,6S,6aR)-6-[(2-amino-3-bromoquinolin-7-yl)oxy]-2-(4-amino-5-phenyl-7H-pyrrolo[2,3-d]pyrimidin-7-yl)hexahydro-3aH-cyclopenta[b]furan-3,3a-diol] |
| 1 | Cc1ncnc2c1ccn2[C@@H]1O[C@@H]2[C@H](Cc3ccc4cc(F)c(N)nc4c3)CC[C@]2(O)[C@H]1O [Example 123, (2R,3R,3aS,6S,6aR)-6-((2-amino-3-fluoroquinolin-7-yl)methyl)-2-(4-methyl-7H-pyrrolo[2,3-d]pyrimidin-7-yl)hexahydro-3aH-cyclopenta[b]furan-3,3a-diol] |
| 0.6 | Cc1ncnc2c1ccn2[C@@H]1O[C@@H]2[C@@H](Nc3ccc4cc(F)c(N)nc4c3)CC[C@]2(O)[C@H]1O [Example 120, (2R,3R,3aS,6S,6aR)-6-((2-amino-3-fluoroquinolin-7-yl)amino)-2-(4-methyl-7H-pyrrolo[2,3-d]pyrimidin-7-yl)hexahydro-3aH-cyclopenta[b]furan-3,3a-diol] |
| 33.9 | Cc1ncnc2c1ccn2[C@@H]1O[C@@H]2[C@H](Oc3ccc4cc(Br)c(N)nc4c3)CC[C@]2(O)[C@H]1O [Example 129, (2R,3R,3aS,6R,6aR)-6-((2-amino-3-bromoquinolin-7-yl)oxy)-2-(4-methyl-7H-pyrrolo[2,3-d]pyrimidin-7-yl)hexahydro-3aH-cyclopenta[b]furan-3,3a-diol] |
| 0.2 | Cc1ncnc2c1ccn2[C@@H]1O[C@@H]2[C@H](Cc3ccc4ccc(N)nc4c3)CC[C@]2(O)[C@H]1O [Example 107, (2R,3R,3aS,6S,6aR)-6-((2-aminoquinolin-7-yl)methyl)-2-(4-methyl-7H-pyrrolo[2,3-d]pyrimidin-7-yl)hexahydro-2H-cyclopenta[b]furan-3,3a-diol] |
| 0.6 | Cc1ncnc2c1ccn2[C@@H]1O[C@@H]2[C@@H](Cc3ccc4cc(Cl)c(N)nc4c3)CC[C@]2(O)[C@H]1O [Example 131, (2R,3R,3aS,6R,6aR)-6-((2-amino-3-chloroquinolin-7-yl)methyl)-2-(4-methyl-7H-pyrrolo[2,3-d]pyrimidin-7-yl)hexahydro-3aH-cyclopenta[b]furan-3,3a-diol] |
| 0.6 | Cc1ncnc2c1ccn2[C@@H]1O[C@@H]2[C@@H](Oc3ccc4cc(Cl)c(N)nc4c3)CC[C@]2(O)[C@H]1O [Example 112, (2R,3R,3aS,6S,6aR)-6-((2-amino-3-chloroquinolin-7-yl)oxy)-2-(4-methyl-7H-pyrrolo[2,3-d]pyrimidin-7-yl)hexahydro-2H-cyclopenta[b]furan-3,3a-diol] |

| Structure (SMILES) | EC50 [nM] |
| --- | --- |
| Cc1nc(N)c2ccn([C@@H]3C[C@@H]4[C@H](Cc5ccc6cc(Cl)c(N)nc6c5)CC[C@]4(O)[C@H]3O)c2n1 [Example 31, (1S,2R,3aR,4S,6aR)-2-(4-amino-2-methyl-7H-pyrrolo[2,3-d]pyrimidin-7-yl)-4-((2-amino-3-chloroquinolin-7-yl)methyl)hexahydropentalene-1,6a(1H)-diol 2,2,2-trifluoroacetate] | 0.4 |
| Cc1cn([C@@H]2O[C@@H]3[C@H](Cc4ccc5cc(F)c(N)nc5c4)CC[C@]3(O)[C@H]2O)c2ncnc(N)c12 [Example 62, (2R,3R,3aS,6S,6aR)-6-((2-amino-3-fluoroquinolin-7-yl)methyl)-2-(4-amino-5-methyl-7H-pyrrolo[2,3-d]pyrimidin-7-yl)hexahydro-3aH-cyclopenta[b]furan-3,3a-diol 2,2,2-trifluoroacetate] | 0.5 |

same assay, conditions: second EC50 of 7 parameters biphasic model; 1.0 nM PRMT5-MEP50, 75 nM biotinylated peptide, 15 μM SAM; read-out: Enzyme Methylation Assay (EC50 2)

| EC50 [nM] | Structure (SMILES) |
| --- | --- |
| 288 | C[C@]1(CCc2ccc3cc(Br)c(N)nc3c2)O[C@@H](n2ccc3c(N)ncnc32)[C@H](O)[C@]1(C)O [Example 4, (2R,3S,4R,5R)-2-(2-(2-amino-3-bromoquinolin-7-yl)ethyl)-5-(4-amino-7H-pyrrolo[2,3-d]pyrimidin-7-yl)-2,3-dimethyltetrahydrofuran-3,4-diol] |
| 31600 | Cc1ncnc2c1ccn2[C@@H]1O[C@@H]2[C@H](Oc3ccc4cc(Br)c(N)nc4c3)CC[C@]2(O)[C@H]1O [Example 129, (2R,3R,3aS,6R,6aR)-6-((2-amino-3-bromoquinolin-7-yl)oxy)-2-(4-methyl-7H-pyrrolo[2,3-d]pyrimidin-7-yl)hexahydro-3aH-cyclopenta[b]furan-3,3a-diol] |
